Results on twelve compounds are retold here after ChEMBL document CHEMBL3046656, “Apoptotic effects of some carbazole derivatives on lung carcinoma and glioma cell lines” (Med Chem Res, 2013).

The IC50 is the point on the concentration scale where inhibition reaches its midpoint. A high value points to weaker potency. A word on the inhibition: it is the percentage by which the read-out fell short of the control.

≈ marks a conversion by molar mass, not a printed value. Calls of active or inactive are those of the source. The calls are words filed in the database; no cut-off is given here.

The test system of assay [1] is A549. Kind of assay: Cytotoxicity against Homo sapiens (human) A549 cells after 24 hr by MTT assay. The format is functional, cell-based. To be noted: A549, 24 h. In general terms: Tetrazolium dyes change colour on reduction, which living cells bring about.
The subject of assay [2] is C6. In words: Cytotoxicity against Rattus norvegicus (rat) C6 cells after 24 hr by MTT assay. Format: functional, cell-based. To be noted: C6, 24 h.
For a further assay, the system named is NIH3T3. In words: Cytotoxicity against Mus musculus (mouse) NIH/3T3 cells after 24 hr by MTT assay. To be noted: NIH3T3, 24 h. Format: cell-based.
Assay [3] deals with A549. In words: Inhibition of nuclear DNA synthesis in Homo sapiens (human) A549 cells assessed as decrease in bromodeoxyuridine incorporation measured during S phase after 24 hr by ELISA. The format is functional, cell-based.
In assay [4] the test system is C6. Kind of assay: Inhibition of nuclear DNA synthesis in Rattus norvegicus (rat) C6 cells assessed as decrease in bromodeoxyuridine incorporation measured during S phase after 24 hr by ELISA. Format: functional, cell-based. In general terms: ELISA stands for enzyme-linked immunosorbent assay.
The target in the next assay is Acetylcholinesterase (Electrophorus electricus, UniProt O42275). Kind of assay: Inhibition of Electrophorus electricus (electric eel) AChE using acetylthiocholine iodide as substrate incubated for 15 min prior to substrate addition measured after 30 min by Ellman's spectrophotometric method. (DTNB colorimetry detects thiols as they appear.)
Sequence of Acetylcholinesterase (O42275 whole entry): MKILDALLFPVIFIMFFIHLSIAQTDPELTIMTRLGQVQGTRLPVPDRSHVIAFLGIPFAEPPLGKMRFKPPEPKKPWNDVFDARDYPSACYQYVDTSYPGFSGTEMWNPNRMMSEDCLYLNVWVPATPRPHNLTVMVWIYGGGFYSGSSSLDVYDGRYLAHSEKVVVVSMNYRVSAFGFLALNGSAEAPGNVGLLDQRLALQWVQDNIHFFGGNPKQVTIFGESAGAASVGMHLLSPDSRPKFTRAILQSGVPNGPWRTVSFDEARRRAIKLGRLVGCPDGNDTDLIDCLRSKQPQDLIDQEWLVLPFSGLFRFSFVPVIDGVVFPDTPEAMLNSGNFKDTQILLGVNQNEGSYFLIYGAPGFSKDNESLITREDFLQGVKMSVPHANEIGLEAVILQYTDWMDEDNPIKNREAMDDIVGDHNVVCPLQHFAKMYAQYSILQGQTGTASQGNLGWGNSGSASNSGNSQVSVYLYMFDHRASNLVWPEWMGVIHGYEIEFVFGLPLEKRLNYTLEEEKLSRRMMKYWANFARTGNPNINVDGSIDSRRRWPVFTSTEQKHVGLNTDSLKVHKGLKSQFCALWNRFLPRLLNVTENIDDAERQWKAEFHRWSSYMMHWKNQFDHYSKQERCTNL
In assay [5] the target is Acetylcholinesterase (Electrophorus electricus) (UniProt O42275). In words: Inhibition of Electrophorus electricus (electric eel) AChE using acetylthiocholine iodide as substrate at 80 ug/mL incubated for 15 min prior to substrate addition measured after 30 min by Ellman's spectrophotometric method relative to control.
Sequence of Acetylcholinesterase (Electrophorus electricus) (O42275 24-633 limits assumed): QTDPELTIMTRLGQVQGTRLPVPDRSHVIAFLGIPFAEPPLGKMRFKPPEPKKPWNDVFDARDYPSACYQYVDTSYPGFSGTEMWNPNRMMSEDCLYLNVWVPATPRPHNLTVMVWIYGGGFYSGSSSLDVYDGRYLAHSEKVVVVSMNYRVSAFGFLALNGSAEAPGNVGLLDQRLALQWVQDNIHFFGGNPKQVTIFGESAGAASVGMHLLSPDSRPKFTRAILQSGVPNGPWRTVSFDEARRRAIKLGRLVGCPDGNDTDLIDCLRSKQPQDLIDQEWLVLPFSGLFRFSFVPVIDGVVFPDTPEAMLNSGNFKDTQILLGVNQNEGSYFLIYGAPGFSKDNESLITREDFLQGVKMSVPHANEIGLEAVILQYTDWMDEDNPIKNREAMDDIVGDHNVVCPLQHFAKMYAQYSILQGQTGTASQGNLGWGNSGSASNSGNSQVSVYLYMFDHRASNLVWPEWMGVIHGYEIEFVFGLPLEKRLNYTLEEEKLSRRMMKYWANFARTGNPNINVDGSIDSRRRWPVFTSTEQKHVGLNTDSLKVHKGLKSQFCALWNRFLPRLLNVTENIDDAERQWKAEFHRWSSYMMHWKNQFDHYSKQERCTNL
For assay [6], the system named is A549. In words: Inhibition of nuclear DNA synthesis in Homo sapiens (human) A549 cells assessed as decrease in bromodeoxyuridine incorporation measured during S phase at 15.6 to 62.5 ug/mL after 24 hr by ELISA. The format is functional.
Assay [7] relates to C6. In words: Inhibition of nuclear DNA synthesis in Rattus norvegicus (rat) C6 cells assessed as decrease in bromodeoxyuridine incorporation measured during S phase at IC50 after 24 hr by ELISA. The format is functional.
The test system of assay [8] is A549. In words: Inhibition of nuclear DNA synthesis in Homo sapiens (human) A549 cells assessed as decrease in bromodeoxyuridine incorporation measured during S phase at IC50 after 24 hr by ELISA. Format: functional.
Assay [9] relates to A549. In words: Induction of apoptosis in Homo sapiens (human) A549 cells assessed as late apoptotic cells at IC50 after 24 hr by annexin V FITC/propidium iodide staining-based FACS flow cytometric analysis (reference value: 0.4%). The format is functional.
Assay [10] has as its system C6. Kind of assay: Induction of necrosis in Rattus norvegicus (rat) C6 cells at IC50 after 24 hr by annexin V FITC/propidium iodide staining-based FACS flow cytometric analysis relative to untreated control. The format is functional.
The test system of assay [11] is C6. In words: Induction of apoptosis in Rattus norvegicus (rat) C6 cells assessed as viable cells at IC50 after 24 hr by annexin V FITC/propidium iodide staining-based FACS flow cytometric analysis (reference value: 96.4%). The format is functional.
Assay [12] relates to A549. Kind of assay: Induction of apoptosis in Homo sapiens (human) A549 cells assessed as viable cells at IC50 after 24 hr by annexin V FITC/propidium iodide staining-based FACS flow cytometric analysis (reference value: 96.5%). Format: functional.
Assay [13] concerns C6. In words: Inhibition of nuclear DNA synthesis in Rattus norvegicus (rat) C6 cells assessed as decrease in bromodeoxyuridine incorporation measured during S phase at 3.9 to 7.8 ug/mL after 24 hr by ELISA. The format is functional.
In assay [14] the test system is A549. In words: Induction of necrosis in Homo sapiens (human) A549 cells at IC50 after 24 hr by annexin V FITC/propidium iodide staining-based FACS flow cytometric analysis relative to untreated control. Format: functional.
Assay [15] deals with C6. In words: Induction of apoptosis in Rattus norvegicus (rat) C6 cells assessed as late apoptotic cells at IC50 after 24 hr by annexin V FITC/propidium iodide staining-based FACS flow cytometric analysis (reference value: 1.1%). Format: functional.
The test system of assay [16] is A549. Kind of assay: Induction of apoptosis in Homo sapiens (human) A549 cells assessed as early apoptotic cells at IC50 after 24 hr by annexin V FITC/propidium iodide staining-based FACS flow cytometric analysis (reference value: 0.5%). Format: functional.
In assay [17] the test system is C6. In words: Induction of apoptosis in Rattus norvegicus (rat) C6 cells assessed as early apoptotic cells at IC50 after 24 hr by annexin V FITC/propidium iodide staining-based FACS flow cytometric analysis (reference value: 0.5%). The format is functional.
In assay [18] the test system is C6. In words: Inhibition of nuclear DNA synthesis in Rattus norvegicus (rat) C6 cells assessed as decrease in bromodeoxyuridine incorporation measured during S phase at 15.6 to 31.2 ug/mL after 24 hr by ELISA. The format is functional.

Take `CCn1c2ccccc2c2cc(NC(=O)CSC(=S)N3CCCCC3)ccc21`: the IC50 with A549 [1] is 177 µg/mL (≈ 429 µM); with C6 [2] it was 198 µg/mL (≈ 482 µM); in the assay on NIH3T3, 393 µg/mL (≈ 956 µM); on Acetylcholinesterase, greater than 194 µM. In addition, the results for the inhibition entry (in the assay with A549 [3]; in the assay with C6 [4]; in assay [5]) were “Dose-dependent effect”, “Dose-dependent effect” and 11.3%, respectively. Moreover, the inhibition result in the assay on A549 [6] was “Active”.
For the compound `CCn1c2ccccc2c2cc(NC(=O)CSC(=S)N3CCC(C)CC3)ccc21`, the half-maximal inhibitory concentration (IC50) in the assay on A549 [1] was 313 µg/mL (≈ 736 µM); with C6 [2], 167 µg/mL (≈ 392 µM); in the assay with NIH3T3, greater than 500 µg/mL; against Acetylcholinesterase, greater than 188 µM. For the same compound, the inhibition result was “Dose-dependent effect” in the assay on A549 [3], “Dose-dependent effect” in the assay with C6 [4] and 23.6% in assay [5]. Further, the inhibition entry in the assay with A549 [6] is “Active”.
Take `O=C1c2c(O)ccc(O)c2C(=O)c2c(NCCNCCO)ccc(NCCNCCO)c21` [MITOXANTRONE]: the “inhibition (INH)” value is 84.6% in the assay on C6 [7] and 67.3% in the assay with A549 [8]. The IC50 was 25.3 µg/mL (≈ 56.9 µM) with A549 [1] and 10.9 µg/mL (≈ 24.5 µM) with C6 [2]. For the same compound, the inhibition result with A549 [3] and with C6 [4] was “Dose-dependent effect” throughout.
Consider `CCn1c2ccccc2c2cc(NC(=O)CSC(=S)N3CCN(CCN(C)C)CC3)ccc21`, for which the IC50 was 41 µg/mL (≈ 84.8 µM) in the assay with A549 [1], 5.9 µg/mL (≈ 12.2 µM) in the assay with C6 [2], 44.3 µg/mL (≈ 91.6 µM) with NIH3T3 and 15.5 µM at Acetylcholinesterase. For the same compound, the Activity came out at 8.1% in the assay on A549 [9]; 0.2% with C6 [10]; 4.7% with C6 [11]; 65% with A549 [12]; 16.6% in the assay on A549 [14]; 11.5% with C6 [15]. Besides, the figures for the Activity in the assay with A549 [16] and in the assay on C6 [17] were 10.3% and 83.7%, respectively. The “inhibition (INH)” value in the assay on C6 [13] is 87.1%; in the assay with A549 [6], 53.4%. Besides, the inhibition result in the assay with A549 [3] is “Dose-dependent effect”; with C6 [4] it was “Dose-dependent effect”; in [5], 91.3%.
Regarding `CCN1CCN(C(=S)SCC(=O)Nc2ccc3c(c2)c2ccccc2n3CC)CC1`, the IC50 with A549 [1] was 61.7 µg/mL (≈ 140 µM); in the assay on C6 [2], 20 µg/mL (≈ 45.4 µM); in the assay with NIH3T3, less than 3.9 µg/mL; against Acetylcholinesterase it was greater than 182 µM. For the same compound, the inhibition entry in the assay on A549 [3] is “Dose-dependent effect”; with C6 [4], “Dose-dependent effect”; in assay [5] it was 19.6%. Besides, the inhibition entry in the assay with A549 [6] is “Active”.
As to `CCn1c2ccccc2c2cc(NC(=O)CSC(=S)N3CCN(c4ccccc4)CC3)ccc21`, the IC50 with A549 [1] was 193 µg/mL (≈ 395 µM); in the assay with C6 [2], 143 µg/mL (≈ 293 µM); with NIH3T3, 357 µg/mL (≈ 730 µM); against Acetylcholinesterase, greater than 164 µM. For the same compound, the values for the inhibition entry (in the assay with A549 [3]; in the assay with C6 [4]; in assay [5]) were “Dose-dependent effect”, “Dose-dependent effect” and 26.6%, respectively. Also, the inhibition result in the assay on A549 [6] was “Active”.
On to `CCn1c2ccccc2c2cc(NC(=O)CSC(=S)N3CCOCC3)ccc21`, for which the IC50 is 25.7 µg/mL (≈ 62.1 µM) in the assay with A549 [1], 180 µg/mL (≈ 435 µM) in the assay on C6 [2], 127 µg/mL (≈ 306 µM) in the assay on NIH3T3 and greater than 193 µM at Acetylcholinesterase. Also, the inhibition result in the assay with A549 [3] was “Dose-dependent effect”; in the assay with C6 [4] it was “Dose-dependent effect”; in [5], 15.4%. In the assay on A549 [6], the inhibition result was “Active”.
In the case of `CCN(CC)C(=S)SCC(=O)Nc1ccc2c(c1)c1ccccc1n2CC`, the IC50 with A549 [1] was 41.7 µg/mL (≈ 104 µM); in the assay with C6 [2], 64.3 µg/mL (≈ 161 µM); in the assay on NIH3T3, 390 µg/mL (≈ 976 µM); at Acetylcholinesterase it was greater than 200 µM. Also, the inhibition result in the assay on A549 [3] is “Dose-dependent effect”; in the assay with C6 [4], “Dose-dependent effect”; in [5], 18.3%. In addition, the inhibition entry in the assay on A549 [6] was “Active”.
Consider `CCn1c2ccccc2c2cc(NC(=O)CSC(=S)N3CCCC3)ccc21`, for which the IC50 in the assay with A549 [1] is 193 µg/mL (≈ 486 µM); in the assay with C6 [2], 75 µg/mL (≈ 189 µM); with NIH3T3 it was 270 µg/mL (≈ 679 µM); on Acetylcholinesterase, greater than 201 µM. Also, the inhibition entry in the assay with A549 [3] is “Dose-dependent effect”; with C6 [4], “Dose-dependent effect”; in assay [5], 9.05%. Further, in the assay on A549 [6], the inhibition result was “Active”.
As to `CCn1c2ccccc2c2cc(NC(=O)CSC(=S)N3CCCCC3C)ccc21` (stereo unspecified), the IC50 is 29.3 µg/mL (≈ 68.8 µM) in the assay with A549 [1], 26.7 µg/mL (≈ 62.7 µM) with C6 [2], 257 µg/mL (≈ 603 µM) in the assay on NIH3T3 and greater than 188 µM against Acetylcholinesterase. The Activity with A549 [9] is on record as 1%; in the assay on C6 [10], 0.3%; with C6 [11], 88.3%; in the assay on A549 [12], 93.3%; with A549 [14], 2.9%; with C6 [15], 5.1%. Also, the Activity is listed as 2.8% in the assay with A549 [16] and 6.2% in the assay with C6 [17]. Also, the “inhibition (INH)” value worked out at 48.3% in the assay on C6 [18] and 71.2% with A549 [6]. For the same compound, the inhibition result with A549 [3] was “Dose-dependent effect”; in the assay with C6 [4], “Dose-dependent effect”; in assay [5], 18%.
As to `CCn1c2ccccc2c2cc(NC(=O)CSC(=S)N3CCN(C)CC3)ccc21`, the IC50 was 34.3 µg/mL (≈ 80.4 µM) in the assay with A549 [1], 21.3 µg/mL (≈ 49.9 µM) in the assay on C6 [2], 48.7 µg/mL (≈ 114 µM) in the assay with NIH3T3 and greater than 188 µM on Acetylcholinesterase. Further, the Activity is listed as 0.4% in the assay with A549 [9]; 0% in the assay on C6 [10]; 82.3% in the assay with C6 [11]; 94.5% with A549 [12]; 3.3% in the assay with A549 [14]; 8.8% with C6 [15]. The Activity stood at 1.8% with A549 [16] and 7.3% in the assay with C6 [17]. The “inhibition (INH)” value came to 45.5% in the assay with C6 [18] and 46.6% in the assay on A549 [6]. The inhibition result with A549 [3] was “Dose-dependent effect”; with C6 [4] it was “Dose-dependent effect”; in [5] it was 21.1%.
As for `CCn1c2ccccc2c2cc(NC(=O)CSC(=S)N3CCN(Cc4ccccc4)CC3)ccc21`, the concentration for half-maximal inhibition (IC50) is 107 µg/mL (≈ 212 µM) with A549 [1], 170 µg/mL (≈ 338 µM) in the assay with C6 [2], 110 µg/mL (≈ 218 µM) with NIH3T3 and greater than 159 µM at Acetylcholinesterase. In addition, the figures for the inhibition result (in the assay with A549 [3]; in the assay on C6 [4]; in assay [5]) were “Dose-dependent effect”, “Dose-dependent effect” and 12.8%, respectively. Moreover, in the assay on A549 [6], the inhibition result is “Active”.
